Measurements as given in PubChem BioAssay (NCI).
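Growth conditions: 96-well plates. Treatment: test compound, 48 hours, 5 concentrations. Analysis: linear interpolation between bracketing concentrations; unreached endpoints set to highest concentration. GI50 marks 50% less growth. Definition used: TGI = concentration required for complete inhibition of growth.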

Key:
Test in all cases: growth of human tumour cells (NCI), 48 h
[1] = tested on: IGROV1 ovarian
[2] = tested on: SN12C renal
[3] = tested on: ACHN renal
[4] = tested on: OVCAR-4 ovarian
[5] = tested on: SW-620 colon
[6] = tested on: MOLT-4 leukemia
[7] = tested on: RPMI-8226 leukemia
[8] = tested on: PC-3 prostate
[9] = tested on: SF-295 CNS
[10] = tested on: HCT-116 colon
[11] = tested on: TK-10 renal
[12] = tested on: COLO 205 colon
[13] = tested on: UO-31 renal
[14] = tested on: HCC-2998 colon
[15] = tested on: LOX IMVI melanoma
[16] = tested on: T-47D breast
[17] = tested on: OVCAR-5 ovarian
[18] = tested on: EKVX NSCLC
[19] = tested on: SK-OV-3 ovarian
[20] = tested on: NCI/ADR-RES ovarian
[21] = tested on: HS 578T breast
[22] = tested on: NCI-H460 lung
[23] = tested on: HT29 colon
[24] = tested on: CAKI-1 renal
[25] = tested on: HCT-15 colon
[26] = tested on: M14 melanoma
[27] = tested on: SF-268 CNS
[28] = tested on: RXF 393 renal
[29] = tested on: HOP-92 NSCLC
[30] = tested on: U251 CNS
[31] = tested on: SK-MEL-2 melanoma
[32] = tested on: MCF7 breast
[33] = tested on: SNB-75 CNS
[34] = tested on: 786-0 renal
[35] = tested on: A549 NSCLC
[36] = tested on: K-562 leukemia
[37] = tested on: MDA-MB-435
[38] = tested on: OVCAR-3 ovarian
[39] = tested on: NCI-H226 lung
[40] = tested on: BT-549 breast
[41] = tested on: SF-539 CNS
[42] = tested on: SR leukemia
[43] = tested on: A498 renal
[44] = tested on: SNB-19 CNS
[45] = tested on: HL-60(TB) leukemia
[46] = tested on: OVCAR-8 ovarian
[47] = tested on: NCI-H522 lung
[48] = tested on: NCI-H23 lung
[49] = tested on: MDA-MB-231 breast
[50] = tested on: SK-MEL-5 melanoma
[51] = tested on: CCRF-CEM leukemia
[52] = tested on: MALME-3M melanoma
[53] = tested on: HOP-62 NSCLC
[54] = tested on: SK-MEL-28 melanoma
[55] = tested on: DU-145 prostate
[56] = tested on: UACC-257 melanoma
[57] = tested on: UACC-62 melanoma
[58] = tested on: KM12 colon

Nc1ncnc2c1c(-c1ccc(Oc3ccccc3)cc1)nn2C[C@@H]1SSC[C@@H]1O
GI50 [1]: 839 nM
TGI [1]: 3260 nM
GI50 [2]: 762 nM
TGI [2]: 11000 nM
GI50 [3]: 398 nM
TGI [3]: 7010 nM
GI50 [4]: 1330 nM
TGI [4]: 14000 nM
GI50 [5]: 432 nM
TGI [5]: > 84000 nM
GI50 [6]: 30.4 nM
TGI [6]: 119 nM
GI50 [7]: 2860 nM
TGI [7]: 14600 nM
GI50 [8]: 1720 nM
TGI [8]: 10100 nM
GI50 [9]: 1470 nM
TGI [9]: 5490 nM
GI50 [10]: 101 nM
TGI [10]: 1640 nM
GI50 [11]: 705 nM
TGI [11]: 2750 nM
GI50 [12]: 1580 nM
TGI [12]: 4700 nM
GI50 [13]: 1540 nM
TGI [13]: 5630 nM
GI50 [14]: 479 nM
TGI [14]: 14800 nM
GI50 [15]: 169 nM
TGI [15]: 1110 nM
GI50 [16]: 305 nM
TGI [16]: 2270 nM
GI50 [17]: 2160 nM
TGI [17]: 26200 nM
GI50 [18]: 373 nM
TGI [18]: 5840 nM
GI50 [19]: 498 nM
TGI [19]: 3710 nM
GI50 [20]: 1050 nM
TGI [20]: 7800 nM
GI50 [21]: 2020 nM
TGI [21]: 11600 nM
GI50 [22]: 28.6 nM
TGI [22]: 80.7 nM
GI50 [23]: 334 nM
TGI [23]: 1700 nM
GI50 [24]: 1360 nM
TGI [24]: 5010 nM
GI50 [25]: 570 nM
TGI [25]: 5980 nM
GI50 [26]: 21.2 nM
TGI [26]: 46.2 nM
GI50 [27]: 37.5 nM
TGI [27]: 530 nM
GI50 [28]: 1460 nM
TGI [28]: 5600 nM
GI50 [29]: 1620 nM
TGI [29]: 6040 nM
GI50 [30]: 853 nM
TGI [30]: 8710 nM
GI50 [31]: 212 nM
TGI [31]: 502 nM
GI50 [32]: 129 nM
TGI [32]: 1310 nM
GI50 [33]: 1780 nM
TGI [33]: 7560 nM
GI50 [34]: 2750 nM
TGI [34]: 11100 nM
GI50 [35]: 479 nM
TGI [35]: 2570 nM
GI50 [36]: 295 nM
TGI [36]: 3210 nM
GI50 [37]: 101 nM
TGI [37]: 256 nM
GI50 [38]: 277 nM
TGI [38]: 1040 nM
GI50 [39]: 1590 nM
TGI [39]: 3920 nM
GI50 [40]: 3530 nM
TGI [40]: 13400 nM
GI50 [41]: 1630 nM
TGI [41]: 26300 nM
GI50 [42]: 38.5 nM
TGI [42]: 270 nM
GI50 [43]: 2010 nM
TGI [43]: 5350 nM
GI50 [44]: 1030 nM
TGI [44]: 14000 nM
GI50 [45]: 576 nM
TGI [45]: 7890 nM
GI50 [46]: 360 nM
TGI [46]: 12200 nM
GI50 [47]: 2150 nM
TGI [47]: 6980 nM
GI50 [48]: 333 nM
TGI [48]: 7930 nM
GI50 [49]: 1140 nM
TGI [49]: 4130 nM
GI50 [50]: 250 nM
TGI [50]: 684 nM
GI50 [51]: 61 nM
TGI [51]: > 59700 nM
GI50 [52]: 445 nM
TGI [52]: 2240 nM
GI50 [53]: 202 nM
TGI [53]: 1240 nM
GI50 [54]: 82.4 nM
TGI [54]: 484 nM
GI50 [55]: 1360 nM
TGI [55]: 4020 nM
GI50 [56]: 374 nM
TGI [56]: 11900 nM
GI50 [57]: 193 nM
TGI [57]: 411 nM
GI50 [58]: 180 nM
TGI [58]: 12100 nM
